Data set [1] addresses T1, D2 receptor (Rattus norvegicus, UniProt P61169). Nature of the data set: biochemical. The format is binding. Particulars: for binding to dopamine receptors (in words): at concentrations as high as 1,000 nM (m-tolyl) and 10,000 nM (p-methoxyphenyl), respectively. On the procedure:
The compounds of the invention are tested in a series of assays known by those skilled in the art as predictive for activity as dopamine partial agonists. […] Drugs. […] Except as otherwise stated, all other chemicals are widely available from commercial sources.
1. Dopamine Receptor Binding
Since a dopamine partial agonist must bind to the dopamine receptor, binding studies are used to determine the affinity of a compound for the receptor. […] The dopamine receptor affinity of the prior art compounds is compared to two compounds of the present invention following the procedure described in R. H. Roth. Comm. […] Compounds are tested at least four concentrations in triplicate. Non-specific binding is determined using 1 uM thioridazine.

Data set [2] relates to dopamine receptor within the central nervous system. Nature of the data set: Block of apomorphine-induced cage climbing. The format is in vivo, CF-1 mice. Particulars: i.p., 25 minutes before apomorphine HCl 2.5 mg/kg i.p.; i.a. = inactive at top dose of 50 mg/kg. The procedure: Administration to mice stimulates dopaminergic receptors which results in enhanced locomotor activity, including climbing up the sides of wire cages. […] As a specific measure of their antagonistic effect, both the prior art compounds and the compounds of the invention are tested in their ability to block agonist-induced locomotor activity. […] During this time, mice that climb the walls more than half-way to the top (6") are removed from the cage. […] Co., New York, N.Y., p.

The subject of data set [3] is dopaminergic neurons in the substantia nigra (SNPC). The data set can be described thus: Dopamine nerve impulse generation: depression of firing of substantia nigra dopamine neurons (agonist). In kind it is in vivo, Sprague-Dawley rats. Particulars: for ED50 / Emax: Rattus norvegicus, Neuron, iv; for ED50: read-out: Agonist ED50: dose to depress firing by 50%; for Emax: read-out: Agonist Max.: maximal depression of firing; for maximal depression on DA cell firing (% of control): 1 mg/kg i.v. The text has this: (§1) 3. Dopamine Nerve Impulse Generation
Dopaminergic agonists, such as apomorphine, depress nerve impulses generated by dopaminergic neurons. Indeed, all full dopamine agonists can completely suppress impulse generation so that the dopamine cells stop firing completely. As the name implies, partial agonists depress impulse generation only partly.
(§2) The activity of two compounds of the invention are compared with other known drugs in their effect on nerve impulse generation. Sprague-Dawley rats weighing between 250-350 g are anesthetized with chloral hydrate (400 mg/kg i.p.). Supplemental doses (50-100 mg/kg) are administered as needed. The fermoral artery and vein are cannulated to measure blood pressure and to permit i.v. administration of drug. Body temperature is maintained at 37° C. using a deltaphase isothermal pad. The animal's head is held in a stereotaxic device and a small burr hole made in the cranium. Extracellular action potentials are recorded with a glass microelectrode (tip size<1μm) filled with pontamine sky blue dye in 2M sodium chloride.
(§3) Dopaminergic neurons are identified by their long duration action potential (>2.5 ms), shape and firing pattern ([…]) according to B. S. Bunney and G. K. Aghajanian "Antipsychotic Drugs and Central Dopaminergic Neurons: A Model for Predicting Therapeutic Efficacy and Incidence of Extrapyramidal Side Effects, In: Predictability in Psychopharmacology: Preclinical and Clinical Correlates, eds.", Raven Press, N.Y., pp. 225-245 (1975). […] Watson "The Rat Brain in Stereotaxic Coordinates", Academic Press, Sydney (1982).
(§4) At the termination of each recording session, the location of the cell in the substantia nigra is identified by passing 10 μA cathodic current through the recording electrode for 10-20 minutes. The brain is then removed, fixed in 10% formalin, sectioned and stained, and the pontamine sky blue deposit verified in each animal.
(§5) All drug solutions are made in distilled water. Each drug injection contained no more than 0.15 ml of a given concentration, followed by a 0.2-0.4 ml of physiological saline to clean the catheter of any residual drug. Drug effects are measured as changes in firing rates as indicated by an integrated output throughout the experiment.

Data set [4] shares this test system. Nature of the data set: Dopamine nerve impulse generation: reversal of amphetamine-induced depression of firing (antagonist). In kind it is in vivo, Sprague-Dawley rats. The following applies: for ED50: Rattus norvegicus, Neuron, iv, read-out: Antagonist ED50: dose to reverse amphetamine by 50%.
From the text: as §1
Dopamine partial agonists act as dopamine antagonists when dopaminergic activity is excessive. Excessive dopaminergic activity can be induced by amphetamine, which causes dopamine to be released at nerve terminals in dopaminergic postsynaptic areas such as the caudate nucleus. This released dopamine activates negative feedback systems connecting postsynaptic dopaminergic areas to dopamine cells (e.g., the caudate nucleus feeds back onto substantia nigra neurons). Through this negative feedback system, amphetamine inhibits nerve impulses in dopamine neurons. Because dopamine antagonists block the access of dopamine to its receptors, these agents block the activation of the negative feedback pathways. Thus, dopamine antagonists and dopamine partial agonists block or reverse amphetamine's depression in dopamine nerve impulse activity. Because dopamine antagonists block not only the dopamine released by amphetamine but also the dopamine released for maintenance of a normal physiological state, dopamine antagonists not only completely reverse the effects of amphetamine but may actually cause an increase in dopamine neuron impulse activity (i.e. reverse amphetamine's inhibition by more than 100%). […] Indeed, partial agonists with higher intrinsic activities only partially reverse the effects of amphetamine.
as §2, §3, §4, §5

Data set [5] deals with catalepsy. The data set can be described thus: Catalepsy.
In data set [6] the test system is amphetamine-induced stereotyped behavior. Nature of the data set: Antagonism of amphetamine-induced stereotyped behavior. In kind it is in vivo, Sprague-Dawley rats. Particulars: for minimal effective dose: Rattus norvegicus, ip, i.p. 30 minutes before d-amphetamine (10 mg/kg s.c.), read-out: Antagonism amphetamine stereotypy: threshold dose for effect. The text has this: Amphetamine releases excessive dopamine and induces a state in animals that serves as a model of positive-symptom schizophrenia. Amphetamine stimulates excessive locomotor activity in the rat, including uncontrolled stereotyped movements, characterized by licking and chewing. This model is indicative of the human response as amphetamine abuse is characterized by schizophrenic-like behavior in humans. Thus compounds may be tested in their ability to antagonize amphetamine.

Data set [7] has as its target T1, D2 receptor. The following applies: rat striata; Kohler; cited from earlier work.
Data set [8] deals with D2 receptor. The following applies: PET scanning in humans; Farde; cited from earlier work.
The test system of data set [9] is catalepsy. The following applies: rat, in vivo.
Setting [10] is: 3H-raclopride, whole rat brain, non-specific binding with 1 uM thioridazine, i.a. = inactive at specified concentration, read-out: Ki (dose for 50% occupation of the receptors).

Read-outs that look alike come from different tables or passages of the source. A value given as a limit tells only on which side of the number the result lay.

T1 sequence (P61169 whole entry): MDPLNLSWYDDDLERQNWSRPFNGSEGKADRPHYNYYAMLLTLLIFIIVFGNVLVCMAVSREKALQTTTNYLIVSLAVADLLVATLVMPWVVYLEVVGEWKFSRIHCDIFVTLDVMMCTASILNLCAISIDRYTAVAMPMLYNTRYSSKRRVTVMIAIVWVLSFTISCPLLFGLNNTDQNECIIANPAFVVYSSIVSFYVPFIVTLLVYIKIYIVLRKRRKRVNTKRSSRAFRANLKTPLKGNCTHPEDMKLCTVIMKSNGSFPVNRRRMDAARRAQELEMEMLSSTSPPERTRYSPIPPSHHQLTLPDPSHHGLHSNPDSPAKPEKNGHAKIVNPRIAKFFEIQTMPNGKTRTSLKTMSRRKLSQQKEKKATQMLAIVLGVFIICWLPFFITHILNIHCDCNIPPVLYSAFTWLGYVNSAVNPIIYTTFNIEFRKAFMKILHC

As a reminder, the Ki is a dissociation constant, usually derived from enzyme kinetics or from competition with a known ligand. `CCCN(CCC)C1Cc2cccc3cc(O)cc(c23)C1` (single isomer, unassigned; (-)) [(-)-z-(dipropylamino)-2,3-dihydro-1-H-phenalen-5-ol] displayed an inhibition constant (Ki) on D2 receptor [1] of 0.47 nM.

What is called ED50 is the midpoint of the dose-response relation. On to `CCN(CC)C(=O)N[C@H]1C[C@@H]2c3cccc4[nH]cc(c34)C[C@H]2N(C)C1` [TDHL, 1-1-diethyl-3-(6-methyl-8α-ergoline)-urea dihydrogenphosphate], for which the Ki on D2 receptor [1] (setting [10]) is 0.95 nM. Moreover, the “ED50: dose for elimination of climbing behavior in 2 of 4 animals” value (“ED50: dose for elimination” for short) in [2] worked out at 35 mg/kg. Besides, in data set [3], the ED50 worked out at 0.021 mg/kg and the Emax was determined as 53%. The ED50 in data set [4] is 0.136 mg/kg. Also, the “Antagonist Max.: maximal reversal of amphetamine” value (“Antagonist Max.: maximal reversal” for short) in data set [4] (i.v.) is given as 60%.

The compound `CN1C[C@@H](NC(=O)C(C)(C)C)C[C@@H]2c3cccc4[nH]c(Cl)c(c34)C[C@H]21` [SDZ 208-912, N-[(8-α)-2-chloro-6-methyl-ergoline-8-yl]-2,2-dimethylpropanamide] displayed a Ki at D2 receptor [1] of 15.7 nM. In data set [3], the ED50 amounted to 0.021 mg/kg and the Emax is 16%. Also, the ED50 in data set [4] stood at 0.115 mg/kg. Also, the “Antagonist Max.: maximal reversal” value in data set [4] (i.v.) came out at 93%.

With `COc1ccccc1N1CCN(CCCCN2CCN(c3ccccc3)C2=O)CC1` [Example 1, 1-[4-[4-(2-methoxyphenyl)-1-piperazinyl]butyl]-3-phenyl-2-imidazolidinone], the “Catalepsy: threshold dose for effect” value with catalepsy [5] (defined as 200% increase in time a rat will spend leaning on a box without aid) turned out to be 10 mg/kg. Further, the “catalepsy relative to dose blocking amphetamine-induced stereotypy (in words)” value in the data set on catalepsy [5] (rat, in vivo) is “produces catalepsy only at doses much higher that required to block amphetamine-induced stereotypy”. The minimal effective dose in data set [6] amounted to 0.3 mg/kg. Moreover, in data set [6] (rat, in vivo), the “antagonism of amphetamine stereotypy, potency relative to haloperidol (in words)” value is reported as “antagonizes amphetamine stereotypy with a potency greater than that of halperidol”. For the same compound, at D2 receptor [1] (setting [10]), the Ki amounted to 2.6 nM. The “ED50: dose for elimination” value in data set [2] turned out to be 12 mg/kg. For the same compound, the “maximal depression on DA cell firing (% of control)” value in data set [3] is reported as 32%. For the same compound, in [3] (Table 3), the Emax came to 36%. Further, the values for the ED50 in [3] (i.a. = inactive) and in data set [4] (i.a. = inactive) were 0.016 mg/kg and 0.04 mg/kg, respectively. Also, the “depression of SNPC cells (in words)” value in data set [3] (i.v.) is given as “behaved as dopamine partial agonists”. The “Antagonist Max.: maximal reversal” value in [4] (i.v.) is reported as 70%. Further, in [4] (i.v.), the “antagonism of amphetamine-induced excessive dopaminergic activity (in words)” value is “only partially antagonized amphetamine”.

For the compound `CCN1CCC[C@H]1CNC(=O)c1c(O)c(Cl)cc(Cl)c1OC` [raclopride], on D2 receptor [7], the B max is 23.5 pmoles/g tissue. Besides, in the data set on D2 receptor [8], the “binding to the D2 receptor (in words)” value is reported as “binds to the D2 receptor”. The Bmax on D2 receptor [1] (3H-raclopride, whole rat brain) was found to be 1.6 pmoles/g tissue.

Consider `CN1CCc2cccc3c2[C@H]1Cc1ccc(O)c(O)c1-3` [Apomorphine], for which the Emax in [3] (Table 3) is 100%. Further, the ED50 in data set [3] (i.a. = inactive) was 0.01 mg/kg. Further, in data set [4] (i.v.), the “Antagonist Max.: maximal reversal” value came out at 0%. Besides, in data set [4] (i.v., i.a. = inactive), the “Antagonist ED50: dose to reverse amphetamine by 50%” value is given as “i.a”.

On to `COc1ccc(N2CCN(CCCN3CCN(c4cccc(Cl)c4)C3=O)CC2)cc1` [1-(m-chlorophenyl)-3-[3-[4-(p-methoxy-phenyl)-1-piperazinyl]propyl]-2-imidazolidinone], for which the Ki on D2 receptor [1] (setting [10]) is over 10000 nM. Besides, on D2 receptor [1], the “binding to dopamine receptors (in words)” value is “do not bind at all”. The “ED50: dose for elimination” value in [2] is recorded as “i.a”.

For `Cc1[nH]c2cccc3c2c1C[C@@H]1[C@@H]3C[C@H](NC(=O)C(C)(C)C)CN1C` [SDZ 208-911, N-[(8-α)-2,6-dimethyl-ergoline-8-yl]-2,2-dimethylpropanamide], in [3], the ED50 is 0.038 mg/kg and the Emax is 38%. For the same compound, in [4], the 50% effective dose (ED50) stood at 0.132 mg/kg. In addition, in data set [4] (i.v.), the “Antagonist Max.: maximal reversal” value amounted to 92%.

With `Cc1cccc(N2CCN(CCCN3CCN(c4cccc(Cl)c4)C3=O)CC2)c1` [1-(m-chlorophenyl)-3-[3-[4-(m-tolyl)-1-piperazinyl]propyl]-2-imidazolidinone], the inhibition constant (Ki) at D2 receptor [1] (setting [10]) is over 1000 nM. The “binding to dopamine receptors (in words)” value on D2 receptor [1] is “do not bind at all”. Also, the “ED50: dose for elimination” value in data set [2] was “i.a”.

On to `Cl.O=C1N(CCCN2CCN(c3ccccc3)CC2)CCN1c1ccccc1` [1-phenyl-3-[3-(4-phenyl-1-piperazinyl)propyl]-2-imidazolidinone hydrochloride], for which, at D2 receptor [1] (read-out: Ki (dose for 50% occupation of the receptors)), the Ki was determined as 323 nM. The “ED50: dose for elimination” value in [2] is reported as “i.a”.

Consider `CCCN1CCCC(c2cccc(O)c2)C1` (single isomer, unassigned; (-)) [(-)-3-PPP, (-)-3-(3-hydroxyphenyl)-N-n-propylpiperidine], for which the Emax in [3] (Table 3) was 70%. The ED50 in data set [3] (i.a. = inactive) is 0.086 mg/kg.

Take `O=C(CCCN1CCC(O)(c2ccc(Cl)cc2)CC1)c1ccc(F)cc1` [Haloperidol]: the minimal effective dose in [6] was found to be 1 mg/kg. The “Catalepsy: threshold dose for effect” value in the data set on catalepsy [9] was found to be 1.0 mg/kg. For the same compound, the Emax in [3] is 0%. The “Agonist ED50: dose to depress firing by 50%” value in data set [3] (i.v., i.a. = inactive) was “i.a”. Moreover, in data set [4] (i.a. = inactive), the ED50 stood at 0.008 mg/kg. The “Antagonist Max.: maximal reversal” value in [4] (i.v.) is on record as 163%.

Turning to “7-hydroxy-1,2,3,4,4a,5,6,10-octahydrobenzo(f)quinoline [HW-165]”, the “Agonist Max.: maximal depression of firing” value in data set [3] (i.v., Table 3) is recorded as 85%. Moreover, the “Agonist ED50: dose to depress firing by 50%” value in data set [3] (i.v., i.a. = inactive) was found to be 0.18 mg/kg.

As to `COc1ccccc1N1CCN(CCCCN2CCN(c3cccc(Cl)c3)C2=O)CC1` [Example 2, 1-(3-chlorophenyl)-3-[4-[4-(2-methoxyphenyl)-1-piperazinyl]butyl]-2-imidazolidinone], on D2 receptor [1] (setting [10]), the Ki is 3.7 nM. The “ED50: dose for elimination” value in data set [2] worked out at 42 mg/kg. The “maximal depression on DA cell firing (% of control)” value in data set [3] was determined as 54%. Further, the “further depression of SNPC cells on increasing the dose (in words)” value in data set [3] (3 mg/kg vs 1 mg/kg i.v.) is given as “does not further increase the depression in SNPC cells”. Besides, the Emax in [3] (Table 3) came out at 54%. For the same compound, the ED50 is 0.108 mg/kg in data set [3] (i.a. = inactive) and 0.343 mg/kg in data set [4] (i.a. = inactive). In data set [3] (i.v.), the “depression of SNPC cells (in words)” value is recorded as “behaved as dopamine partial agonists”. Further, the “Antagonist Max.: maximal reversal” value in [4] (i.v.) came out at 73%.
